Consider 31 molecules from patent publication US20220235032A1 (GENFLEET THERAPEUTICS (SHANGHAI) INC., priority 2019, published 2022).

A word on the IC50: it is the midpoint of a concentration-inhibition curve.

For the first assay, the system named is U937 cells. Kind of assay: Inhibitory activity against programmed necroptosis of U937 cells induced by TNF-α and Q-VD-Oph (CellTiter-Glo). Type of assay: cell-based. Particulars: Homo sapiens, U-937, 48 h, Celltiter-Glo survival rate. The method, then: The U937 cell strain which was used in the following Testing Examples was derived from ATCC, No.: CRL-1593.2, batch No.: 63479999, culture medium: RPMI-1640+10% FBS.
The compound to be tested was dissolved in DMSO, and diluted with DMSO to a series of gradient concentrations. The U937 cells were inoculated in a 384-well plate at 5000/well. The compound at respective concentration was added to each of the wells, and was mixed with the cells homogeneously. Human TNF-α and Q-VD-Oph were added simultaneously to induce programmed necroptosis of the cells. The cells were placed in the incubator at 37° C. and 5% CO2 for further culture of 48 h. Celltiter-Glo reagent was used for detection. After adequate pyrolysis reaction, the chemiluminescence readout value was recorded by a microplate reader. The survival rate was calculated from the detection results using the equation as follows: SR (%)=(RLU compound−RLU blank)/(RLU high control−RLU blank)×100%. The survival rate was plotted against the final concentration of respective compound using a 4-parameter fitting to calculate the inhibitory C50 of the compound against programmed necroptosis of cells induced by TNF-α.
(In general: In ATP-based viability assays light output follows the ATP content of the culture.)
Turning to `NC(=O)c1ccnc(N2CC3CC(C(=O)N4N=CCC4c4cncc(F)c4)CC3C2)n1` (racemic) [Compound Z-34, 2-(5-(5-(5-fluoropyridin-3-yl)-4,5-dihydro-1H-pyrazole-1-carbonyl)hexahydrocyclopenta[c]pyrrol-2(1H)-yl)pyrimidine-4-carboxamide], the IC50 amounted to 380 nM.
The same measure, in the same setting: in the case of `COc1cc(N2CCC(C(=O)N3N=CCC3c3ccccc3)C3(CC3)C2)ncn1` (racemic) [Compound Z-40-1, (5-(6-methoxypyrimidin-4-yl)-5-aza-spiro[2.5]oct-8-yl)(5-phenyl-4,5-dihydro-1H-pyrazol-1-yl) ketone] it was 9 nM.
Same read-out and setting: for `COc1nccc(N2CCC(C(=O)N3N=CCC3c3ccccc3)C3(CC3)C2)n1` (racemic) [Compound Z-41-1, (5-(2-methoxypyrimidin-4-yl)-5-aza-spiro[2.5]oct-8-yl)(5-phenyl-4,5-dihydro-1H-pyrazol-1-yl) ketone] the value was 5 nM; for `NC(=O)c1cc(N2CCC(C(=O)N3N=CCC3c3ccccc3)C3(CC3)C2)ncn1` (racemic) [Compound Z-43-2, 6-(8-(5-phenyl-4,5-dihydro-1H-pyrazole-1-carbonyl)-5-aza-spiro[2.5]oct-5-yl)pyrimidine-4-carboxamide], 45 nM; for `NC(=O)c1cc(N2CCC(C(=O)N3N=CCC3c3cc(F)cc(F)c3)C3(CC3)C2)ncn1` (racemic) [Compound Z-44-2, 6-(8-(5-(3,5-difluorophenyl)-4,5-dihydro-1H-pyrazole-1-carbonyl)-5-aza-spiro[2.5]oct-5-yl)pyrimidine-4-carboxamide], 22 nM.
In turn, `NC(=O)c1ccnc(N2CCC(C(=O)N3N=CCC3c3cc(F)cc(F)c3)C3(CC3)C2)n1` (racemic) [Compound Z-46-1, 2-(8-(5-(3,5-difluorophenyl)-4,5-dihydro-1H-pyrazole-1-carbonyl)-5-aza-spiro[2.5]oct-5-yl)pyrimidine-4-carboxamide] had an IC50 of 4 nM.
Same read-out and setting: in the case of `NC(=O)c1cc(N2CCC(C(=O)N3N=CCC3c3cncc(F)c3)C3(CC3)C2)ncn1` (racemic) [Compound Z-49-1, 6-(8-(5-(5-fluoropyridin-3-yl)-4,5-dihydro-1H-pyrazole-1-carbonyl)-5-aza-spiro[2.5]oct-5-yl)pyrimidine-4-carboxamide] it was 279 nM; in that of `N#Cc1cc(N2CCC(C(=O)N3N=CCC3c3ccccc3)C3(CC3)C2)ncn1` (racemic) [Compound Z-60-2, 6-(8-(5-phenyl-4,5-dihydro-1H-pyrazole-1-carbonyl)-5-aza-spiro[2.5]oct-5-yl)pyrimidine-4-carbonitrile], 7 nM; in that of `NC(=O)c1cc(N2CCC(C(=O)N3N=CCC3c3cc(F)cc(F)c3)CC23CC3)ncn1` (racemic) [Compound Z-64-a, 6-(7-(5-(3,5-difluorophenyl)-4,5-dihydro-1H-pyrazole-1-carbonyl)-4-aza-spiro[2.5]oct-4-yl)pyrimidine-4-carboxamide], 10 nM.
The same measure, in the same setting: for `CN(C)C(=O)c1cc(N2CC[C@H](C(=O)N3N=CC[C@H]3c3cc(F)cc(F)c3)CC23CC3)ncn1` (racemic) [Compound Z-69, 6-((S)-7-((S)-5-(3,5-difluorophenyl)-4,5-dihydro-1H-pyrazole-1-carbonyl)-4-aza-spiro[2.5]oct-4-yl)-N,N-dimethylpyrimidine-4-carboxamide] the value was 127 nM; for `NC(=O)c1ccnc(N2C[C@H]3C[C@H](C(=O)N4N=CC[C@@H]4c4cc(F)ccc4F)C[C@H]3C2)n1` (single isomer, unassigned) [Compound Z-22-2], 48 nM.
Still for that read-out and setting: for `N#Cc1cc(N2CC[C@@H](C(=O)N3N=CC[C@@H]3c3cncc(F)c3)CC23CC3)ncn1` (single isomer, unassigned) [Compound Z-65-4] the value was 14 nM; for `Nc1nc(N2CC3CC(C(=O)N4N=CCC4c4ccccc4)CC3C2)ncc1F` (stereo not shown) [Compound Z-14, (2-(4-amino-5-fluoropyrimidin-2-yl)octahydrocyclopenta[c]pyrrol-5-yl)(5-phenyl-4,5-dihydro-1H-pyrazol-1-yl) ketone], 165 nM.
Molecule `NC(=O)c1cc(N2CC3CC(C(=O)N4N=CCC4c4cc(F)cc(F)c4)CC3C2)ncn1` (stereo not shown) [Compound Z-17, 6-(5-(5-(3,5-difluorophenyl)-4,5-dihydro-1H-pyrazole-1-carbonyl)hexahydrocyclopenta[c]pyrrol-2(1H)-yl)pyrimidine-4-carboxamide] gave an IC50 of 248 nM.

Still in this assay, the particulars now being: human TNF-α + Q-VD-Oph induced necroptosis, 48 h, Celltiter-Glo survival rate.
As to `N#Cc1cc(N2CCC(C(=O)N3CCC(c4cc(F)cc(F)c4)=N3)C3(CC3)C2)ncn1` (racemic) [Compound Z-25, 6-(8-(3-(3,5-difluorophenyl)-4,5-dihydro-1H-pyrazole-1-carbonyl)-5-aza-spiro[2.5]oct-5-yl)pyrimidine-4-carbonitrile], the IC50 is 4 nM.
The same measure, in the same setting: in the case of `N#Cc1cc(N2CCC(C(=O)N3CCC(c4cc(F)cc(F)c4)=N3)C3(CC3)C2)ncn1` (racemic) [Compound Z-26, 6-(8-(3-(3,5-difluorophenyl)-4,5-dihydro-1H-pyrazole-1-carbonyl)-5-aza-spiro[2.5]oct-5-yl)pyrimidine-4-carbonitrile] it was 244 nM; in that of `N#Cc1cc(N2CCC(C(=O)N3N=CCC3c3cncc(F)c3)C3(CC3)C2)ncn1` (racemic) [Compound Z-48-1, 6-(8-(5-(5-fluoropyridin-3-yl)-4,5-dihydro-1H-pyrazole-1-carbonyl)-5-aza-spiro[2.5]oct-5-yl)pyrimidine-4-carbonitrile], 30 nM; in that of `N#Cc1cc(N2CCC(C(=O)N3N=CCC3c3cncc(F)c3)C3(CC3)C2)ncn1` (racemic) [Compound Z-48-2, 6-(8-(5-(5-fluoropyridin-3-yl)-4,5-dihydro-1H-pyrazole-1-carbonyl)-5-aza-spiro[2.5]oct-5-yl)pyrimidine-4-carbonitrile], 361 nM.
On to `N#Cc1cc(N2CCC(C(=O)N3N=CCC3c3cc(F)ccc3F)C3(CC3)C2)ncn1` (racemic) [Compound Z-52-1, 6-(8-(5-(2,5-difluorophenyl)-4,5-dihydro-1H-pyrazole-1-carbonyl)-5-aza-spiro[2.5]oct-5-yl)pyrimidine-4-carbonitrile], for which the IC50 amounted to 4 nM.
The same measure, in the same setting: in the case of `N#Cc1cc(N2CCC(C(=O)N3N=CCC3c3cc(F)ccc3F)C3(CC3)C2)ncn1` (racemic) [Compound Z-52-2, 6-(8-(5-(2,5-difluorophenyl)-4,5-dihydro-1H-pyrazole-1-carbonyl)-5-aza-spiro[2.5]oct-5-yl)pyrimidine-4-carbonitrile] it was 41 nM; in that of `NC(=O)c1cc(N2CCC(C(=O)N3N=CCC3c3cc(F)ccc3F)C3(CC3)C2)ncn1` (racemic) [Compound Z-53-1, 6-(8-(5-(2,5-difluorophenyl)-4,5-dihydro-1H-pyrazole-1-carbonyl)-5-aza-spiro[2.5]oct-5-yl)pyrimidine-4-carboxamide], 26 nM; in that of `NC(=O)c1cc(N2CCC(C(=O)N3N=CCC3c3cc(F)ccc3F)C3(CC3)C2)ncn1` (racemic) [Compound Z-53-2, 6-(8-(5-(2,5-difluorophenyl)-4,5-dihydro-1H-pyrazole-1-carbonyl)-5-aza-spiro[2.5]oct-5-yl)pyrimidine-4-carboxamide], 331 nM.
Turning to `N#Cc1cc(N2CC3CCC(C2)C3C(=O)N2N=CCC2c2ccccc2)ncn1` (single isomer, unassigned) [Compound Z-2, 6-(8-(5-phenyl-4,5-dihydro-1H-pyrazole-1-carbonyl)-3-azabicyclo[3.2.1]oct-3-yl)pyrimidine-4-carbonitrile], the IC50 amounted to 156 nM.
Still for that read-out and setting: for `N#Cc1cc(N2CC3CCC(C2)C3C(=O)N2N=CCC2c2ccccc2)ncn1` (single isomer, unassigned) [Compound Z-3, 6-(8-(5-phenyl-4,5-dihydro-1H-pyrazole-1-carbonyl)-3-azabicyclo[3.2.1]oct-3-yl)pyrimidine-4-carbonitrile] the value was 322 nM.
Still for that read-out and setting: for `NC(=O)c1ccnc(N2C[C@@H]3CC(C(=O)N4N=CC[C@@H]4c4cc(F)cc(F)c4)C[C@H]3C2)n1` (single isomer, unassigned) [Compound Z-18-4] the value was 62 nM; for `Nc1nc(N2C[C@H]3C[C@@H](C(=O)N4N=CC[C@@H]4c4cc(F)cc(F)c4)C[C@H]3C2)ncc1F` (single isomer, unassigned) [Compound Z-23-4], 41 nM; for `N#Cc1ccnc(N2C[C@H]3C[C@@H](C(=O)N4N=CC[C@@H]4c4cc(F)cc(F)c4)C[C@H]3C2)n1` (single isomer, unassigned) [Compound Z-32-4], 61 nM.
On the same count and under the same terms, in the case of `COc1nccc(N2C[C@H]3C[C@H](C(=O)N4N=CC[C@@H]4c4ccccc4)C[C@H]3C2)n1` (single isomer, unassigned) [Compound Z-37-2] it was 22 nM; in that of `N#Cc1cc(N2C[C@H]3C[C@H](C(=O)N4N=CC[C@@H]4c4cc(F)cc(F)c4)C[C@H]3C2)ncn1` (single isomer, unassigned) [Compound Z-38-2], 27 nM; in that of `N#Cc1cc(N2C[C@H]3C[C@@H](C(=O)N4N=CC[C@@H]4c4cc(F)cc(F)c4)C[C@H]3C2)ncn1` (single isomer, unassigned) [Compound Z-38-4], 82 nM.
Regarding `Nc1nc(N2C[C@H]3C[C@@H](C(=O)N4N=CC[C@@H]4c4ccccc4)C[C@H]3C2)ncc1F` (single isomer, unassigned) [Compound Z-39-4], the IC50 stood at 88 nM.
